Assay results as given in ChEMBL document CHEMBL3124855, “4'-Substituted pyrimidine nucleosides lacking 5'-hydroxyl function as potential anti-HCV agents” (Bioorg Med Chem Lett, 2014).

Columns and labels:
[1] = Selectivity index, ratio of CC50 for human HuH7 cells to EC50 for HCV subtype 1a; parameters: species or system Huh-7
[2] = Cytotoxicity against human HuH7 cells after 2 days by XTT assay; format: cell-based, Huh-7
[3] = tested on: Hepatitis C virus; assay: Antiviral activity against HCV subtype 1a infected in Huh-7 cells assessed as reduction in viral RNA level at 84.4 uM after 8 to 10 days by quantitative PCR analysis; format: functional, Hepacivirus hominis
[4] = tested on: Hepatitis C virus; assay: Antiviral activity against HCV subtype 1a infected in Huh-7 cells assessed as reduction in viral RNA level after 8 to 10 days by quantitative PCR analysis; format: functional, organism-based, Hepacivirus hominis
[5] = tested on: Hepatitis C virus; assay: Antiviral activity against HCV subtype 1a infected in Huh-7 cells assessed as reduction in viral RNA level at 69.4 uM after 8 to 10 days by quantitative PCR analysis; format: functional, Hepacivirus hominis
[6] = tested on: Hepatitis C virus; assay: Antiviral activity against HCV subtype 1a infected in Huh-7 cells assessed as reduction in viral RNA level at 75.2 uM after 8 to 10 days by quantitative PCR analysis; format: functional, Hepacivirus hominis
[7] = tested on: Hepatitis C virus; assay: Antiviral activity against HCV subtype 1a infected in Huh-7 cells assessed as reduction in viral RNA level at 71.4 uM after 8 to 10 days by quantitative PCR analysis; format: functional, Hepacivirus hominis
[8] = tested on: Hepatitis C virus; assay: Antiviral activity against HCV subtype 1a infected in Huh-7 cells assessed as reduction in viral RNA level at 69.7 uM after 8 to 10 days by quantitative PCR analysis; format: functional, Hepacivirus hominis
[9] = tested on: Hepatitis C virus; assay: Antiviral activity against HCV subtype 1a infected in Huh-7 cells assessed as reduction in viral RNA level at 79.4 uM after 8 to 10 days by quantitative PCR analysis; format: functional, Hepacivirus hominis
[10] = tested on: Hepatitis C virus; assay: Antiviral activity against HCV subtype 1a infected in Huh-7 cells assessed as reduction in viral RNA level at 83.3 uM after 8 to 10 days by quantitative PCR analysis; format: functional, Hepacivirus hominis
[11] = tested on: Hepatitis C virus; assay: Antiviral activity against HCV subtype 1a infected in Huh-7 cells assessed as reduction in viral RNA level at 35.6 uM after 8 to 10 days by quantitative PCR analysis; format: functional, Hepacivirus hominis
[12] = tested on: Hepatitis C virus; assay: Antiviral activity against HCV subtype 1a infected in Huh-7 cells assessed as reduction in viral RNA level at 67.7 uM after 8 to 10 days by quantitative PCR analysis; format: functional, Hepacivirus hominis
[13] = tested on: Hepatitis C virus; assay: Antiviral activity against HCV subtype 1a infected in Huh-7 cells assessed as reduction in viral RNA level at 33.1 uM after 8 to 10 days by quantitative PCR analysis in presence of ribavirin; format: functional, Hepacivirus hominis
[14] = tested on: Hepatitis C virus; assay: Antiviral activity against HCV subtype 1a infected in Huh-7 cells assessed as reduction in viral RNA level at 33.1 uM after 8 to 10 days by quantitative PCR analysis; format: functional, Hepacivirus hominis
[15] = tested on: Hepatitis C virus; assay: Antiviral activity against HCV subtype 1a infected in Huh-7 cells assessed as reduction in viral RNA level at 66.2 uM after 8 to 10 days by quantitative PCR analysis; format: functional, Hepacivirus hominis
[16] = tested on: Hepatitis C virus; assay: Antiviral activity against HCV subtype 1a infected in Huh-7 cells assessed as reduction in viral RNA level at 69.6 uM after 8 to 10 days by quantitative PCR analysis; format: functional, Hepacivirus hominis
[17] = tested on: Hepatitis C virus; assay: Antiviral activity against HCV subtype 1a infected in Huh-7 cells assessed as reduction in viral RNA level at 72.9 uM after 8 to 10 days by quantitative PCR analysis; format: functional, Hepacivirus hominis
[18] = tested on: Hepatitis C virus; assay: Antiviral activity against HCV subtype 1a infected in Huh-7 cells assessed as reduction in viral RNA level at 41 uM after 8 to 10 days by quantitative PCR analysis; format: functional, Hepacivirus hominis
[19] = tested on: Hepatitis C virus; assay: Antiviral activity against HCV subtype 1a infected in Huh-7 cells assessed as reduction in viral RNA level at 81.9 uM after 8 to 10 days by quantitative PCR analysis; format: functional, Hepacivirus hominis

For `Cc1cn([C@H]2CC=C(C(N)=O)O2)c(=O)[nH]c1=O`, the “Ratio CC50/EC50” value [1] was greater than 10, the CC50 at 48 h [2] was greater than 1060 µM and the inhibition at 84.4 µM [3] was 20%.

In the case of `COC(=O)[C@H]1O[C@@H](n2cc(C)c(=O)[nH]c2=O)[C@H](F)[C@@H]1O`, the EC50 [4] is reported as 43.4 µM, the “Ratio CC50/EC50” value [1] is reported as greater than 10 and the CC50 at 48 h [2] is reported as greater than 868 µM. It also gave an inhibition at 69.4 µM [5] of 56%.

With `[N-]=[N+]=N[C@H]1C[C@H](n2ccc(=O)[nH]c2=O)O[C@@H]1C(N)=O` the “Ratio CC50/EC50” value [1] was greater than 10, the CC50 at 48 h [2] was greater than 940 µM and the inhibition at 75.2 µM [6] was 10%.

In the case of `Cc1cn([C@H]2C[C@H](N=[N+]=[N-])[C@@H](C(N)=O)O2)c(=O)[nH]c1=O`, the “Ratio CC50/EC50” value [1] is reported as greater than 10, the inhibition at 71.4 µM [7] is reported as 10% and the CC50 at 48 h [2] is reported as greater than 893 µM.

In the case of `CCc1cn([C@@H]2O[C@H](C(N)=O)[C@@H](O)[C@@H]2F)c(=O)[nH]c1=O`, the “Ratio CC50/EC50” value [1] is reported as greater than 10, the inhibition at 69.7 µM [8] is reported as 20% and the CC50 at 48 h [2] is reported as greater than 871 µM.

With `COC(=O)[C@@H]1C=C[C@H](n2cc(C)c(=O)[nH]c2=O)O1` the EC50 [4] was 49.6 µM, the “Ratio CC50/EC50” value [1] was greater than 10 and the inhibition at 79.4 µM [9] was 58%. For the same compound, the CC50 at 48 h [2] was greater than 992 µM.

For `COC(=O)C1=CC[C@H](n2cc(C)c(=O)[nH]c2=O)O1`, the EC50 [4] was 79.4 µM, the “Ratio CC50/EC50” value [1] was greater than 10 and the inhibition at 79.4 µM [9] was 50%. It also gave a CC50 at 48 h [2] greater than 992 µM.

With `COC(=O)[C@@H]1CC[C@H](n2ccc(=O)[nH]c2=O)O1` the “Ratio CC50/EC50” value [1] was greater than 10, the CC50 at 48 h [2] was greater than 1040 µM and the inhibition at 83.3 µM [10] was 0%.

For `COC(=O)[C@H]1O[C@@H](n2ccc(=O)[nH]c2=O)C[C@@H]1N=[N+]=[N-]`, the EC50 [4] was 35.6 µM, the “Ratio CC50/EC50” value [1] was greater than 10 and the CC50 at 48 h [2] was greater than 890 µM. For the same compound, the inhibition at 35.6 µM [11] was 54%.

In the case of `COC(=O)[C@H]1O[C@@H](n2cc(C)c(=O)[nH]c2=O)C[C@@H]1N=[N+]=[N-]`, the EC50 [4] is reported as 33.9 µM, the “Ratio CC50/EC50” value [1] is reported as greater than 10 and the inhibition at 67.7 µM [12] is reported as 60%. The CC50 at 48 h [2] was greater than 847 µM.

With `CCc1cn([C@@H]2O[C@H](C(=O)OC)[C@@H](O)[C@@H]2F)c(=O)[nH]c1=O` the EC50 [4] was 33.1 µM, the “Ratio CC50/EC50” value [1] was greater than 10 and the “fractional inhibitory concentration index (FICI)” value [13] was 0.3. The CC50 at 48 h [2] was greater than 829 µM, the inhibition at 33.1 µM [14] was 50% and the inhibition at 66.2 µM [15] was 65%.

With `COC(=O)[C@H]1O[C@@H](n2ccc(=O)[nH]c2=O)[C@H](OC)[C@@H]1O` the inhibition at 69.6 µM [16] was 53%, the EC50 [4] was 69.6 µM and the “Ratio CC50/EC50” value [1] was greater than 10. For the same compound, the CC50 at 48 h [2] was greater than 874 µM.

In the case of `COC(=O)[C@H]1O[C@@H](n2cc(C)c(=O)[nH]c2=O)C[C@@H]1Cl`, the EC50 [4] is reported as 43.4 µM, the “Ratio CC50/EC50” value [1] is reported as greater than 10 and the CC50 at 48 h [2] is reported as greater than 868 µM. It also gave an inhibition at 69.4 µM [5] of 58%.

For `COC(=O)[C@H]1O[C@@H](n2ccc(=O)[nH]c2=O)[C@H](F)[C@@H]1O`, the EC50 [4] was greater than 72.9 µM, the “Ratio CC50/EC50” value [1] was greater than 10 and the inhibition at 72.9 µM [17] was 43%. For the same compound, the CC50 at 48 h [2] was greater than 912 µM.

For `NC(=O)c1ncn([C@@H]2O[C@H](CO)[C@@H](O)[C@H]2O)n1` [RIBAVIRIN], the inhibition at 41 µM [18] was 32%, the “Ratio CC50/EC50” value [1] was greater than 10 and the inhibition at 81.9 µM [19] was 50%.
